In PubChem BioAssay (NCI):
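Grown in 96-well plates, cells were treated for 48 hours with each compound at five concentrations. Insufficient inhibition: endpoint recorded as highest concentration tested. At the GI50, growth is halved. The concentration for full growth arrest is given as TGI.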

What was measured:
Experiment in all cases: DTP human tumour cell line panel, 48 h
CCRF-CEM leukemia = test system: CCRF-CEM leukemia
HCT-15 colon = test system: HCT-15 colon
LOX IMVI melanoma = test system: LOX IMVI melanoma
MALME-3M melanoma = test system: MALME-3M melanoma
MCF7 breast = test system: MCF7 breast
NCI/ADR-RES ovarian = test system: NCI/ADR-RES ovarian
RPMI-8226 leukemia = test system: RPMI-8226 leukemia
SNB-75 CNS = test system: SNB-75 CNS
UACC-62 melanoma = test system: UACC-62 melanoma
MOLT-4 leukemia = test system: MOLT-4 leukemia

SMILES	GI50 (CCRF-CEM leukemia)	TGI (CCRF-CEM leukemia)	TGI (HCT-15 colon)	TGI (LOX IMVI melanoma)	TGI (MALME-3M melanoma)	TGI (MCF7 breast)	GI50 (NCI/ADR-RES ovarian)	TGI (NCI/ADR-RES ovarian)	TGI (RPMI-8226 leukemia)	TGI (SNB-75 CNS)	GI50 (UACC-62 melanoma)	TGI (UACC-62 melanoma)	GI50 (HCT-15 colon)	GI50 (LOX IMVI melanoma)	GI50 (MCF7 breast)	GI50 (MOLT-4 leukemia)	TGI (MOLT-4 leukemia)	GI50 (RPMI-8226 leukemia)	GI50 (SNB-75 CNS)	GI50 (MALME-3M melanoma)
CC[C@H](CO)Nc1nc(NCc2ccccc2)c2ncn(C(C)C)c2n1	> 50.6 µM	> 100 µM	> 81.6 µM	> 84.1 µM	50 µM	> 81.5 µM	10.9 µM	56.6 µM	> 77.8 µM	30.6 µM	10.5 µM	34 µM								
CN(C)C(=O)c1cnc2oc3ccc(O)cc3c2c1-c1ccccc1			> 25 µM	> 25 µM		> 25 µM	> 25 µM	> 25 µM	> 25 µM	> 25 µM			> 25 µM	> 25 µM	> 25 µM	> 25 µM	> 25 µM	> 25 µM	11.7 µM	
COc1ccc(CC(=O)c2ccc(O)cc2O)cc1	49.4 µM	> 100 µM	> 100 µM	> 100 µM	> 100 µM	> 100 µM	58.8 µM	> 100 µM	> 100 µM	> 100 µM	93 µM	> 100 µM	> 100 µM	> 100 µM	> 100 µM	57.4 µM	> 100 µM	34 µM	> 100 µM	45.2 µM
C=C1c2ccoc2C[C@H]2[C@H]1CC[C@@]1(O)[C@@](C)(C(=O)OC)CCC[C@]21C	23.5 µM	60.1 µM	64.9 µM	36.7 µM	56.2 µM	> 100 µM	42.5 µM	> 100 µM	54 µM	> 100 µM	13.7 µM	30.7 µM	24.9 µM	17.6 µM	9.51 µM	15.6 µM	43.3 µM	21.5 µM	> 100 µM	22.1 µM
COc1cc([N+](=O)[O-])c(OC)cc1-c1nc2sccn2c1/C=N/N=C(N)N			72.4 µM	41.5 µM	40.7 µM	> 100 µM	51.1 µM	> 100 µM	> 100 µM		27.7 µM	70.5 µM	26.3 µM	17.9 µM	22 µM	> 100 µM	> 100 µM	> 100 µM		11 µM
COC(=N)c1c(N)[n+]([O-])c2ccc(F)cc2[n+]1[O-]	> 100 µM	> 100 µM	> 100 µM	> 100 µM	> 100 µM	> 100 µM	> 100 µM	> 100 µM	> 100 µM	> 100 µM	> 100 µM	> 100 µM	> 100 µM	> 100 µM	76.4 µM	> 100 µM	> 100 µM	81.2 µM	96.2 µM	66.3 µM
COc1cnc2c(c1)C(=O)c1c-2n(CCCNC2=NCCS2)c(=O)c2cc(Cl)ccc12			2.67 µM			1.32 µM			4.89 µM	2.51 µM	0.0953 µM	1.94 µM	1.26 µM		0.0366 µM	0.0454 µM	1.71 µM	1.07 µM	1.23 µM	
Oc1c(Cl)c(Cl)c(O)c2c1CCCC2		5.05 µM	29.7 µM	78.6 µM	9.48 µM	4.56 µM		38 µM	6.91 µM			27 µM								
O=C1c2ccc3c4c(ccc(c24)C(=O)N1CCCNCc1ccccc1Cl)C(=O)N(CCCNCc1ccccc1Cl)C3=O	0.215 µM	50 µM	0.62 µM		1.05 µM	0.231 µM	0.142 µM	0.456 µM	1.86 µM	1.47 µM	0.671 µM	1.43 µM	0.148 µM		0.1 µM	0.168 µM	0.722 µM	0.39 µM	0.716 µM	0.315 µM
O=S(=O)(c1cccc2c(I)cccc12)N1CCCNCC1	14.1 µM	32.2 µM	34.7 µM	36.6 µM		> 100 µM	20.2 µM	43.5 µM	38.5 µM		19.9 µM	37.3 µM	17.9 µM	18.3 µM	36.1 µM	10.9 µM	27.6 µM	14.5 µM		
CCC[CH2][Sn]1([CH2]CCC)[O]C2C(CO)OC(n3ccc(N)nc3=O)C2[O]1 (configuration not stated)			2.7 µM	1.65 µM	2.15 µM	1.42 µM	2.01 µM	4.37 µM	2.02 µM	2.28 µM	1.12 µM	2.41 µM	1.27 µM	0.384 µM	0.3 µM	1.64 µM	> 100 µM	0.29 µM	1.05 µM	0.701 µM
O=[N+]([O-])c1cc(Cl)cnc1Br		19.6 µM	7.11 µM	3.16 µM	49.7 µM	2.84 µM		6.72 µM	6.79 µM			4.9 µM					4.52 µM			
CN1CCc2[nH]nc(-c3n[nH]c4c3CN(C)CC4)c2C1		> 100 µM	> 100 µM	> 100 µM	> 100 µM	> 100 µM		> 100 µM	> 100 µM			> 100 µM					> 100 µM			
COc1ccc(C(=O)/C=C/c2cccc(Nc3ccnc4cc(Cl)ccc34)c2)cc1	2.88 µM	> 100 µM	> 100 µM	11.7 µM	6.3 µM	> 100 µM			13.8 µM	4.12 µM			2.04 µM	1.58 µM	1.82 µM	2.9 µM	> 100 µM	0.572 µM	1.51 µM	1.79 µM
CN(C)c1ccc(C(=NO)c2ccc(N(C)C)cc2)cc1	3.27 µM	> 100 µM	> 100 µM	> 100 µM	> 100 µM	> 100 µM			7.94 µM	53.2 µM	2.11 µM	> 100 µM	1.64 µM	6.29 µM	1.71 µM	3.02 µM	> 100 µM	2.04 µM	3.33 µM	2.63 µM
CC1=C(CCC(C)NCc2ccc(OCCCN3CCCCC3)cc2)C(C)(C)CCC1 (configuration not stated)	1.54 µM	4.7 µM	2.03 µM	2.85 µM	3.29 µM	1.17 µM	1.72 µM	3.47 µM	5.36 µM	2.72 µM	1.94 µM	3.73 µM	0.575 µM	1.44 µM	0.286 µM			2.29 µM	1.39 µM	1.6 µM
Cc1nn(-c2ccc(Cl)cc2)c2nc3c(nc12)C(=O)C(=O)c1ccccc1-3			16.8 µM	5.89 µM	3.86 µM	> 100 µM	3.92 µM	> 100 µM	> 100 µM	4.3 µM	8.45 µM	34.4 µM	3.4 µM	2.08 µM	27.9 µM	> 100 µM	> 100 µM	5.65 µM	1.66 µM	1.43 µM
Cn1cc(-c2csc(-c3cn(CCCN4CCCCC4)c4ccccc34)n2)c2cccnc21			3.2 µM	3.11 µM	3.19 µM	3.29 µM					1.87 µM	3.46 µM	1.7 µM	1.66 µM	1.65 µM					1.61 µM
OCCn1cnc2c(SCc3ccccc3)ncnc21		> 100 µM	> 100 µM	> 100 µM	> 100 µM	> 100 µM		> 100 µM	> 100 µM	> 100 µM		> 100 µM								
Nc1ncnc2c1c(-c1ccc(Oc3ccccc3)cc1)nn2C[C@@H]1SSC[C@H]1O	0.278 µM	> 100 µM	7.31 µM	1.74 µM	6.45 µM	3.79 µM	2.96 µM	14 µM	31.8 µM	> 33.4 µM	0.264 µM	0.882 µM	1.16 µM	0.272 µM	0.898 µM			5.58 µM	4.25 µM	1.25 µM
Cc1nn(C)c(COc2ccc(N3CCN(S(=O)(=O)N(C)C)CC3)cc2)c1-c1cccc2c(CCCOc3cccc4ccccc34)c(C(=O)O)n(CCN3CCOCC3)c12	4.19 µM	> 100 µM	22.9 µM	11.6 µM	15.5 µM	11 µM	36.5 µM	> 100 µM		10.5 µM			7.62 µM	3.16 µM	2.84 µM	3.52 µM	16.5 µM		2.11 µM	3.15 µM
Cc1[nH]c2ccc(F)cc2c1-c1nc2c3cccnc3c3ncccc3c2[nH]1	0.193 µM	> 100 µM	> 100 µM		> 100 µM	> 100 µM			> 100 µM	> 100 µM	0.231 µM	0.678 µM	0.387 µM		0.361 µM	0.298 µM	> 100 µM	3.43 µM	0.422 µM	0.283 µM
NCCN.O=C([O-])CN1CCOCC1.[OH-].[Pt+4]	> 100 µM	> 100 µM	> 100 µM	> 100 µM	> 100 µM	> 100 µM	> 100 µM	> 100 µM		> 100 µM	> 100 µM	> 100 µM	> 100 µM	> 100 µM	> 100 µM	> 100 µM	> 100 µM		> 100 µM	> 100 µM
COC(=O)c1cc2ccccc2c2c3c(ccc12)OCO3			> 1000 µM	> 1000 µM	483 µM	> 1000 µM	54.4 µM	> 1000 µM	> 1000 µM	48.1 µM	40.1 µM	> 1000 µM	137 µM	772 µM	306 µM	794 µM	> 1000 µM	430 µM	12.2 µM	76.6 µM
Cc1ccc(-c2csc(NC(=O)N3CCN(c4cc5c(cc4F)c(=O)c(C(=O)O)cn5C4CC4)CC3)n2)cc1	0.451 µM	> 100 µM	> 100 µM	> 100 µM	5.67 µM	> 100 µM	4.65 µM	> 100 µM	1.9 µM	9.55 µM	0.63 µM	6.29 µM	0.417 µM	0.362 µM	0.49 µM			0.378 µM	0.289 µM	1.1 µM
C=C1CC[C@@H]2[C@](C)(COC(C)=O)[C@H](OC(C)=O)CC[C@@]2(C)[C@@H]1CC(Nc1ccc(S(=O)(=O)Nc2ccc(Cl)nn2)cc1)C1=CCOC1=O (some centres not stated)	0.465 µM	2.6 µM	2.3 µM	1.19 µM	3.9 µM		1.87 µM	6.2 µM	3.04 µM	5.9 µM	1.49 µM	3.86 µM	0.882 µM	0.295 µM		1.96 µM	> 100 µM	0.445 µM	1.44 µM	1.72 µM
CCOC(=O)C1CCCCN1C(=O)c1ccc(Nc2cnc3cc(C(F)(F)F)ccc3n2)cc1 (configuration not stated)			42.6 µM	16.4 µM	22.1 µM	25.1 µM	14.1 µM	29.2 µM	6.42 µM		14.2 µM	27.7 µM	17.2 µM	3.62 µM	10.2 µM	3.93 µM	> 100 µM	2.2 µM		6.89 µM
[O-]c1ccccc1/C=N/C(/N=C/c1ccccc1[O-])c1ccccc1O.[O-]c1ccccc1/C=N/C(/N=C/c1ccccc1[O-])c1ccccc1O.[Zr+4]			> 100 µM			> 100 µM	> 100 µM	> 100 µM	> 100 µM	61.1 µM			50.3 µM		35.9 µM	25.2 µM	> 100 µM	24.5 µM	3.8 µM	
CCSc1nc(SCC)c2c(-c3ccc(OC)c(OC)c3)c(C#N)c(SCC)nc2n1	83.7 µM	> 100 µM	61.2 µM	60.1 µM		> 100 µM	14.4 µM	45 µM	94.4 µM		18.5 µM	43.4 µM	24.6 µM	22.9 µM	14.8 µM	68.5 µM	> 100 µM	8.38 µM		
